Experimental data as given in patent publication US11767320B2, “Bicyclic dione compounds as inhibitors of KRAS” (INCYTE CORPORATION, priority 2020, dated 2023).

Target: KRAS G12C (Homo sapiens, UniProt P01116, G12C)
Test: GDP-GTP exchange assay (fluorescence based guanine nucleotide exchange, bodipy-GDP for GppNHp, SOS1)
Format: biochemical
Conditions: bodipy-loaded KRAS G12C, 2 hours pre-incubation with inhibitor, read-out: G12C_exchange (KRAS_G12C exchange assay IC50)
Method: The inhibitor potency of the exemplified compounds was determined in a fluorescence based guanine nucleotide exchange assay, which measures the exchange of bodipy-GDP (fluorescently labeled GDP) for GppNHp (Non-hydrolyzable GTP analog) to generate the active state of KRAS in the presence of SOS1 (guanine nucleotide exchange factor). Inhibitors were serially diluted in DMSO and a volume of 0.1 μL was transferred to the wells of a black low volume 384-well plate. 5 μL/well volume of bodipy-loaded KRAS G12C diluted to 5 nM in assay buffer (25 mM Hepes pH 7.5, 50 mM NaCl, 10 mM MgCl2 and 0.01% Brij-35) was added to the plate and pre-incubated with inhibitor for 2 hours at ambient temperature. Appropriate controls (enzyme with no inhibitor or with a G12C inhibitor (AMG-510)) were included on the plate. The exchange was initiated by the addition of a 5 μL/well volume containing 1 mM GppNHp and 300 nM SOS1 in assay buffer. The 10 μL/well reaction concentration of the bodipy-loaded KRAS G12C, GppNHp, and SOS1 were 5-25 nM, 500 uM, and 150 nM, respectively. The reaction plates were incubated at ambient temperature for 2 hours, a time estimated for complete GDP-GTP exchange in the absence of inhibitor. For the KRAS G12D and G12V mutants, similar guanine nucleotide exchange assays were used with 2.5 nM as final concentration for the bodipy loaded KRAS proteins and with 4 hours and 3 hours incubation after adding GppNHp-SOS1 mixture for G12D and G12V, respectively. A cyclic peptide described to selectively bind G12D mutant (Sakamoto et al., BBRC 484.3 (2017), 605-611) or internal compounds with confirmed binding were used as positive controls in the assay plates. Fluorescence intensities were measured on a PheraStar plate reader instrument (BMG Labtech) with excitation at 485 nm and emission at 520 nm.
Either GraphPad prism or XLfit was used to analyze the data. The IC50 values were derived by fitting the data to a four parameter logistic equation producing a sigmoidal dose-response curve with a variable Hill coefficient. Prism equation: Y=Bottom+(Top−Bottom)/(1+10^((Log IC50−X)*Hill slope)); XLfit equation: Y=(A+((B−A)/(1+((X/C)^D)))) where X is the logarithm of inhibitor concentration and Y is the response.

KRAS G12C, sequence (P01116 1-188 isoform P01116-2 G12C): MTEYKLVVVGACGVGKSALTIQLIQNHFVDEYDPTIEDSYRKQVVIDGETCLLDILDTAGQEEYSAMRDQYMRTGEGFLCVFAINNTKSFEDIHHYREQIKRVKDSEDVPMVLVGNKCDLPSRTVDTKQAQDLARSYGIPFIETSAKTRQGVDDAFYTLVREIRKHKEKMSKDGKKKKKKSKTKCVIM

SMILES	IC50 [nM]
[2H]C([2H])(n1c(=O)c(=O)n(-c2c(C)ccnc2C(C)C)c2nc(-c3c(O)cc(C)cc3F)c(Cl)cc21)C1(F)CN(C(=O)C=C)C1 [Example 48, 1-((1-acryloyl-3-fluoroazetidin-3-yl)methyl-d2)-7-chloro-6-(2-fluoro-6-hydroxy-4-methylphenyl)-4-(2-isopropyl-4-methylpyridin-3-yl)-1,4-dihydropyrido[2,3-b]pyrazine-2,3-dione]	≤ 100
[2H]C([2H])(n1c(=O)c(=O)n(-c2c(C)ccnc2C(C)C)c2nc(-c3ccnc(C)c3Cl)c(Cl)cc21)C1(F)CN(C(=O)C=C)C1 [Example 54, 1-((1-acryloyl-3-fluoroazetidin-3-yl)methyl-d2)-7-chloro-6-(3-chloro-2-methylpyridin-4-yl)-4-(2-isopropyl-4-methylpyridin-3-yl)-1,4-dihydropyrido[2,3-b]pyrazine-2,3-dione]	100 to 1000
C=CC(=O)N1CC(F)(Cn2c(=O)c(=O)n(-c3c(C)ccnc3C(C)C)c3nc(-c4cccc5cn[nH]c45)c(Cl)cc32)C1 [Example 29, 1-((1-acryloyl-3-fluoroazetidin-3-yl)methyl)-7-chloro-6-(1H-indazol-7-yl)-4-(2-isopropyl-4-methylpyridin-3-yl)-1,4-dihydropyrido[2,3-b]pyrazine-2,3-dione]	100 to 1000
[2H]C([2H])(n1c(=O)c(=O)n(-c2c(C)ccnc2C(C)C)c2nc(-c3cncc(C)c3C)c(Cl)cc21)C1(F)CN(C(=O)C=C)C1 [Example 52, 1-((1-acryloyl-3-fluoroazetidin-3-yl)methyl-d2)-7-chloro-6-(4,5-dimethylpyridin-3-yl)-4-(2-isopropyl-4-methylpyridin-3-yl)-1,4-dihydropyrido[2,3-b]pyrazine-2,3-dione]	1000 to 5000
C=CC(=O)N1CC(Cn2c(=O)c(=O)n(-c3c(C)ccnc3C(C)C)c3nc(-c4ccccc4F)c(Cl)cc32)(OC)C1 [Example 41, 1-((1-acryloyl-3-methoxyazetidin-3-yl)methyl)-6-(2-fluorophenyl)-7-chloro-4-(2-isopropyl-4-methylpyridin-3-yl)-1,4-dihydropyrido[2,3-b]pyrazine-2,3-dione]	100 to 1000
C=CC(=O)N1CCC(n2c(=O)c(=O)n(-c3c(CC)cccc3CC)c3nc(-c4c(O)cccc4F)c(Cl)cc32)CC1 [Example 2, 1-(1-acryloylpiperidin-4-yl)-7-chloro-4-(2,6-diethylphenyl)-6-(2-fluoro-6-hydroxyphenyl)-1,4-dihydropyrido[2,3-b]pyrazine-2,3-dione]	1000 to 5000
C=CC(=O)N1CC(Cn2c(=O)c(=O)n(-c3c(C(C)C)cccc3C(C)C)c3nc(-c4cccc5ccccc45)c(Cl)cc32)C1 [Example 6, 1-((1-acryloylazetidin-3-yl)methyl)-7-chloro-4-(2,6-diisopropylphenyl)-6-(1-naphthyl)-1,4-dihydropyrido[2,3-b]pyrazine-2,3-dione]	1000 to 5000
[2H]C([2H])(n1c(=O)c(=O)n(-c2c(C)ccnc2C(C)C)c2nc(-c3c(O)cccc3Cl)c(Cl)cc21)C1(F)CN(C(=O)C=C)C1 [Example 49, 1-((1-acryloyl-3-fluoroazetidin-3-yl)methyl-d2)-7-chloro-6-(2-chloro-6-hydroxyphenyl)-4-(2-isopropyl-4-methylpyridin-3-yl)-1,4-dihydropyrido[2,3-b]pyrazine-2,3-dione]	≤ 100
C=CC(=O)N1CC(O)(Cn2c(=O)c(=O)n(-c3c(C)ccnc3C(C)C)c3nc(-c4ccccc4F)c(Cl)cc32)C1 [Example 43, 1-((1-acryloyl-3-hydroxyazetidin-3-yl)methyl)-7-chloro-6-(2-fluorophenyl)-4-(2-isopropyl-4-methylpyridin-3-yl)-1,4-dihydropyrido[2,3-b]pyrazine-2,3-dione]	100 to 1000
C=CC(=O)N1CC(F)(Cn2c(=O)c(=O)n(-c3c(C)ccnc3C(C)C)c3nc(-c4cccc5ccc(=O)[nH]c45)c(Cl)cc32)C1 [Example 32, 1-((1-acryloyl-3-fluoroazetidin-3-yl)methyl)-7-chloro-4-(2-isopropyl-4-methylpyridin-3-yl)-6-(2-oxo-1,2-dihydroquinolin-8-yl)-1,4-dihydropyrido[2,3-b]pyrazine-2,3-dione]	100 to 1000
C=CC(=O)N1CC(F)(Cn2c(=O)c(=O)n(-c3c(C)ccnc3C(C)C)c3nc(-c4cccc5nn[nH]c45)c(Cl)cc32)C1 [Example 30, 1-((1-acryloyl-3-fluoroazetidin-3-yl)methyl)-6-(1H-benzo[d][1,2,3]triazol-7-yl)-7-chloro-4-(2-isopropyl-4-methylpyridin-3-yl)-1,4-dihydropyrido[2,3-b]pyrazine-2,3-dione]	100 to 1000
[2H]C([2H])(n1c(=O)c(=O)n(-c2c(C)ccnc2C(C)C)c2nc(-c3c(O)cccc3Cl)c(Cl)cc21)C1(F)CN(C(=O)C(=C)F)C1 [Example 50, 7-chloro-6-(2-chloro-6-hydroxyphenyl)-1-((3-fluoro-1-(2-fluoroacryloyl)azetidin-3-yl)methyl-d2)-4-(2-isopropyl-4-methylpyridin-3-yl)-1,4-dihydropyrido[2,3-b]pyrazine-2,3-dione]	≤ 100
C=CC(=O)N1CCC(n2c(=O)c(=O)n(-c3c(CC)cccc3CC)c3nc(-c4ccccc4F)c(Cl)cc32)CC1 [Example 1, 1-(1-acryloylpiperidin-4-yl)-7-chloro-4-(2,6-diethylphenyl)-6-(2-fluorophenyl)-1,4-dihydropyrido[2,3-b]pyrazine-2,3-dione]	5000 to 10000
C=CC(=O)N1CC(O)(Cn2c(=O)c(=O)n(-c3c(C)ccnc3C(C)C)c3nc(-c4c(F)ccc(F)c4O)c(Cl)cc32)C1 [Example 44, 1-((1-acryloyl-3-hydroxyazetidin-3-yl)methyl)-7-chloro-6-(3,6-difluoro-2-hydroxyphenyl)-4-(2-isopropyl-4-methylpyridin-3-yl)-1,4-dihydropyrido[2,3-b]pyrazine-2,3-dione]	100 to 1000
C=CC(=O)N1CC(F)(Cn2c(=O)c(=O)n(-c3c(C)ccnc3C(C)C)c3nc(-c4cccnc4N)c(Cl)cc32)C1 [Example 31, 1-((1-acryloyl-3-fluoroazetidin-3-yl)methyl)-6-(2-aminopyridin-3-yl)-7-chloro-4-(2-isopropyl-4-methylpyridin-3-yl)-1,4-dihydropyrido[2,3-b]pyrazine-2,3-dione]	100 to 1000
[2H]C([2H])(n1c(=O)c(=O)n(-c2c(C)ccnc2C(C)C)c2nc(-c3ccccc3-c3ccccc3)c(Cl)cc21)C1(F)CN(C(=O)C=C)C1 [Example 55, 6-([1,1′-biphenyl]-2-yl)-1-((1-acryloyl-3-fluoroazetidin-3-yl)methyl-d2)-7-chloro-4-(2-isopropyl-4-methylpyridin-3-yl)-1,4-dihydropyrido[2,3-b]pyrazine-2,3-dione]	100 to 1000
[2H]C([2H])(n1c(=O)c(=O)n(-c2c(C)ccnc2C(C)C)c2nc(-c3cccc4ccccc34)c(Cl)cc21)C1(F)CN(C(=O)C=C)C1 [Example 53, 1-((1-acryloyl-3-fluoroazetidin-3-yl)methyl-d2)-7-chloro-4-(2-isopropyl-4-methylpyridin-3-yl)-6-(naphthalen-1-yl)-1,4-dihydropyrido[2,3-b]pyrazine-2,3-dione]	≤ 100
C=CC(=O)N1CC(Cn2c(=O)c(=O)n(-c3c(C(C)C)cccc3C(C)C)c3nc(-c4ccccc4F)c(Cl)cc32)C1 [Example 3, 1-((1-acryloylazetidin-3-yl)methyl)-7-chloro-4-(2,6-diisopropylphenyl)-6-(2-fluorophenyl)-1,4-dihydropyrido[2,3-b]pyrazine-2,3-dione]	100 to 1000
C=CC(=O)N1CC(Cn2c(=O)c(=O)n(-c3c(CC)cccc3CC)c3nc(-c4ccccc4F)c(Cl)cc32)C1 [Example 4, 1-((1-acryloylazetidin-3-yl)methyl)-7-chloro-4-(2,6-diethylphenyl)-6-(2-fluorophenyl)-1,4-dihydropyrido[2,3-b]pyrazine-2,3-dione]	100 to 1000
C=CC(=O)N1CC(O)(Cn2c(=O)c(=O)n(-c3c(C)ccnc3C(C)C)c3nc(-c4c(O)cc(C)cc4F)c(Cl)cc32)C1 [Example 46, 1-((1-acryloyl-3-hydroxyazetidin-3-yl)methyl)-7-chloro-6-(2-fluoro-6-hydroxy-4-methylphenyl)-4-(2-isopropyl-4-methylpyridin-3-yl)-1,4-dihydropyrido[2,3-b]pyrazine-2,3-dione]	100 to 1000
C=CC(=O)N1CC(F)(Cn2c(=O)c(=O)n(-c3c(C)ccnc3C(C)C)c3nc(-c4c(F)ccc(O)c4O)c(Cl)cc32)C1 [Example 26, 1-((1-acryloyl-3-fluoroazetidin-3-yl)methyl)-7-chloro-6-(6-fluoro-2,3-dihydroxyphenyl)-4-(2-isopropyl-4-methylpyridin-3-yl)-1,4-dihydropyrido[2,3-b]pyrazine-2,3-dione]	100 to 1000
